In patent US10501805B2, “Methods for determining responsiveness to MEK/ERK inhibitors” (CROWN BIOSCIENCE, INC. (TAICANG), priority 2014, dated 2019):
pIC50: −log10 of the molar value.

Experiments:
Experiment in all cases: CellTiter-Glo cell viability, IC50 determination
Type in all cases: cell-based
[1] = test system: NCI-H1299; details: Homo sapiens, 72 h; NCI-H1299 cell line; 3-day CTG assay; read-out: Absolute IC50
In short: (§1)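 Cells were seeded at 4×10^3 cells/well in medium with 10% FBS, left overnight at 37 °C and 5% CO2, then treated in triplicate on Day 0. On Day 3, viability was read by CellTiter-Glo luminescence. Absolute IC50 is where a sigmoidal nonlinear fit crosses 50% surviving rate.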

[2] = test system: NCI-H441; details: Homo sapiens, 72 h; NCI-H441 cell line; 3-day CTG assay; read-out: Absolute IC50
In short: as §1

[3] = test system: A2058; details: Homo sapiens, 72 h; A2058 cell line; 3-day CTG assay; read-out: Absolute IC50
In short: as §1

[4] = test system: HepG2; details: Homo sapiens, 72 h; HepG2 cell line; 3-day CTG assay; read-out: Absolute IC50
In short: as §1

[5] = test system: Colo205; details: Homo sapiens, COLO 205, 72 h; Colo205 cell line; 3-day CTG assay; read-out: Absolute IC50
In short: as §1

[6] = test system: HT1376; details: Homo sapiens, HT-1376, 72 h; HT1376 cell line; 3-day CTG assay; read-out: Absolute IC50
In short: as §1

[7] = test system: Hela; details: Homo sapiens, 72 h; Hela cell line; 3-day CTG assay; read-out: Absolute IC50
In short: as §1

Row | Structure (SMILES) | pIC50 [1] | pIC50 [2] | pIC50 [3] | pIC50 [4] | pIC50 [5] | pIC50 [6] | pIC50 [7]
1 | CC(=O)Nc1cccc(-n2c(=O)n(C3CC3)c(=O)c3c(Nc4ccc(I)cc4F)n(C)c(=O)c(C)c32)c1 [Trametinib, N-(3-{3-Cyclopropyl-5-[(2-fluoro-4-iodophenyl)amino]-6,8-dimethyl-2,4,7-trioxo-3,4,6,7-tetrahydropyrido[4,3-d]pyrimidin-1(2H)-yl}phenyl)acetamide] | 6.04 | 3.49 | 6.92 | – | – | – | –
2 | O=C(Nc1ccc2[nH]nc(-c3ccncc3)c2c1)[C@@H]1CCN(CC(=O)N2CCN(c3ccc(-c4ncccn4)cc3)CC2)C1 [SCH772984, (R)-1-(2-oxo-2-(4-(4-(pyrimidin-2-yl)phenyl)piperazin-1-yl)ethyl)-N-(3-(pyridin-4-yl)-1H-indazol-5-yl)pyrrolidine-3-carboxamide] | – | – | – | 6.89 | 7.40 | 5.37 | 5.27
